# Measurements taken from US20050089583A1, “Novel herbal composition for the treatment of gastric ulcer” (priority 2003, published 2005).
# How the values were obtained:
# [1] = system: Cold Restraint Ulcers (CRU); assay: Cold restraint ulcer (CRU) model; format: in vivo, rats
# Protocol: Method: Adult rats of either sex, weighing 150-175 Gms were fasted for 24 hours with free access to water. The test drugs were administered 45 minutes before immobilizing the animals. The rats were immobilized in the restraint cage at 4° C. in BOD incubator for 2 hrs and were sacrificed immediately after the restraint period. (According to the method of Senay and Levine 1967). The abdomen was cut opened; stomach was taken out and incised along the greater curvature to observe the gastric lesions with the help of Magnascope (5× magnification).
# (§1) The following arbitrary scoring system was used to grade the severity and intensity of the lesions. • 1. Shedding of epithelium=10 • 2. Petechial and frank hemorrhages=20 • 3. One or two ulcers=30 • 4. More than two ulcers=40 • 5. Perforated ulcers=50 The presence of any of these lesions was considered as a positive ulcerogenic response which has been shown as percentage of rats showing gastric lesions.
# (§2) The severity of ulcers is expressed in terms of ulcer index, which is the mean score of gastric lesions of all the rats in a group which is defined as: • Ulcer Index (U. I.)=Us+Up×10^−1 • Where Us=Mean severity of ulcer score and Up-Percentage of animals with Ulcer incidences.
# (§3) The percentage protection is calculated as follows: • Percentage protection ═(C-T/C)×100. • Wherein • C=Number of animals showing ulcer response in control group and • T=Number of animals showing ulcer response in test group.
# Histamine induced ulcer = Histamine induced ulcer model; format: in vivo, guinea pig; settings: HF2 50 mg/Kg p.o., Omeprazole 10 mg/kg p.o.
# Protocol: Method: Animals were fasted for 24 hours with access to water. The drug was given orally 1 hour prior to the histamine administration. Histamine was administered in a dose of 0.25 mg/Kg, i.m. at 30 minutes interval-for 7 times and it induced 100% duodenal ulceration in guinea pig (According to the method of Watt and Eagleton 1964)^4. The animals were sacrificed after half an hour of last injection under ether anesthesia. The stomach along with duodenum was removed washed thoroughly and examined for the lesions and ulcer index with protection index was calculated. The effect of the herbal composition “HF2” and the standard drug “Omeprazole” against Histamine induced ulcer model is given in Table 4.
# [2] = system: aspirin induced gastric ulcer; assay: Aspirin induced gastric ulcer model; format: in vivo, rats
# Description: as §1, §2, §3
# Method: Gastric ulceration was induced by aspirin according to the method of Djahanguiri (1969). Aspirin (150 mg/Kg.) was administered per orally as a suspension in gum-acacia and the animal was sacrificed 5 hr. after the aspirin treatment and the ulcer index with protection index were calculated.
# [3] = HF 2 100 mg/Kg p.o., Omeprazole 10 mg/Kg p.o.
smiles,measurement,setting,value
COc1ccc2[nH]c([S+]([O-])Cc3ncc(C)c(OC)c3C)nc2c1 (stereo not shown) [Omeprazole],protection against cold restraint ulcer model,[1],54.03%
same,Percentage of ulcer incidence,"[1]; HF2 50 mg/Kg p.o., Omeprazole 10 mg/Kg p.o.",50%
same,Ulcer severity (type of lesions) score 10 (No. of rats showing lesions/No. of rats tested),"[1]; score 10 = shedding of epithelium, HF2 50 mg/Kg p.o., Omeprazole 10 mg/Kg p.o., 4° C., 2 hrs restraint",3/10
same,Ulcer severity (type of lesions) score 20 (No. of rats showing lesions/No. of rats tested),"[1]; score 20 = petechial and frank hemorrhages, HF2 50 mg/Kg p.o., Omeprazole 10 mg/Kg p.o.",2/10
same,Percentage of ulcer incidence,Histamine induced ulcer,33.3%
same,Ulcer severity (type of lesions) score 20 (No. Guinea pig showing lesions/No. of Guinea pig tested),Histamine induced ulcer; Histamine 0.25 mg/Kg i.m. × 7,1/3
same,protection against aspirin induced ulcer model,[2],39.41%
same,Ulcer severity (type of lesions) score 20 (No. of rats showing lesions/No. of rats tested),"[2]; Aspirin 150 mg/Kg p.o., HF 2 100 mg/Kg p.o., Omeprazole 10 mg/Kg p.o.",2/6
same,Ulcer severity (type of lesions) score 10 (No. of rats showing lesions/No. of rats tested),"[2]; Aspirin 150 mg/Kg p.o., HF 2 100 mg/Kg p.o., Omeprazole 10 mg/Kg p.o., 5 hr",2/6
same,Mean severity of ulcer score,[2]; [3],10.0
same,Percentage of ulcer incidence,[2]; [3],66.7%
same,Protection index,[2]; [3],39.41
same,Ulcer index,[2]; [3],7.67
